Measured values published in patent US20100190815A1, “HYPERTENSION-AMELIORATING AGENT” (KYOWA HAKKO BIO CO., LTD., priority 2006, published 2010).

Test system: spontaneously hypertensive rats (SHRs)
Test: Systolic blood pressure by the tail-cuff method in spontaneously hypertensive rats, oral administration once daily for 29 days
Format: in vivo, rat
Conditions: for Systolic blood pressure compared with the 1st (vehicle) group: 5 mg/kg (2nd group), from Day 8 to the end of the test period; for Systolic blood pressure: male SHR/Izm rats, mean ± standard error, n=6
Experimental: The rats used were spontaneously hypertensive rats (SHRs). The systolic blood pressure levels of 18 male SHR/Izm rats (10 week olds; Japan SLC, Inc.) were measured on Day 1 of administration. The rats were divided into 3 groups of 6 rats in a manner such that the mean values of the groups were almost equivalent to one another. The groups were referred to as the 1st to the 3rd groups. A 0.5 w/v % methylcellulose aqueous solution was orally administered to the rats in the 1st group. A 0.5 w/v % methylcellulose aqueous solution containing pyrroloquinoline quinone disodium salt (hereinafter, referred to as PQQ disodium salt; Mitsubishi Gas Chemical Company, Inc.) suspended therein (1 mg/mL) was orally administered to the rats in the 2nd group. A 0.5 w/v % methylcellulose aqueous solution containing PQQ disodium salt suspended therein (4 mg/mL) was orally administered to the rats in the 3rd group. Oral administration was carried out in a volume of 5 mL/kg once daily for 29 days. The single dose of PQQ disodium salt was 5 mg/kg in the 2nd group and the same was 20 mg/kg in the 3rd group. On Days 1, 8, 15, 22, and 29 of administration, systolic blood pressure was measured before administration (24 hours after administration on the previous day) and 4 hours after administration of the PQQ disodium salt. Systolic blood pressure was measured by the tail-cuff method with the use of an unheated non-invasive blood pressure monitor for mice and rats (MK-2000, Muromachi Kikai Co., Ltd.). Measurement was carried out 5 times per instance. The mean value of three systolic blood pressure values obtained by excluding the highest value and the lowest value was determined to be the value for an individual rat. The value for each group was expressed as the mean value±standard error (n=6). A statistically significant difference was obtained at each measurement point by carrying out one-way analysis of variance. When the significance was confirmed by one-way analysis of variance, a parametric Dunnett's multiple comparison test was carried so that a significant difference between the 2nd and the 1st group and between the 3rd group and the 1st group were obtained. In addition, in a case in which there was a significance level (p value) of less than 0.05, it was determined that there was a significant difference.

## O=C(O)c1cc(C(=O)O)c2c(n1)C(=O)C(=O)c1cc(C(=O)O)[nH]c1-2.[Na].[Na] [PQQ disodium salt, pyrroloquinoline quinone disodium salt]
4 hours after administration
  Systolic blood pressure compared with the 1st (vehicle) group: lower than that for the 1st group
Before administration
  Systolic blood pressure compared with the 1st (vehicle) group: lower than that for the 1st group
20 mg/kg (3rd group), 4 hours after administration
  Systolic blood pressure compared with the 2nd (5 mg/kg) group: lower than that for the 2nd group
20 mg/kg (3rd group), 4 hours after administration on Day 29, Dunnett's test, p < 0.05
  Systolic blood pressure compared with the 1st (vehicle) group, significance: significantly lower than that for the 1st group
20 mg/kg (3rd group), before administration
  Systolic blood pressure compared with the 2nd (5 mg/kg) group: lower than that for the 2nd group
SHR rats, 5 and 20 mg/kg oral once daily for 29 days
  Hypertension-ameliorating effect in hypertension rats (overall conclusion): blood pressure-reducing effects, namely, hypertension-ameliorating effects, were observed
5 mg/kg oral once daily (2nd group), Day 1, 4 hours after administration
  Systolic blood pressure: 172 ± 4 mmHg
5 mg/kg oral once daily (2nd group), Day 1, before administration (baseline)
  Systolic blood pressure: 172 ± 3 mmHg
5 mg/kg oral once daily (2nd group), Day 8, 4 hours after administration
  Systolic blood pressure: 175 ± 3 mmHg
5 mg/kg oral once daily (2nd group), Day 8, before administration (24 hours after previous dose)
  Systolic blood pressure: 177 ± 3 mmHg
5 mg/kg oral once daily (2nd group), Day 15, 4 hours after administration
  Systolic blood pressure: 184 ± 3 mmHg
5 mg/kg oral once daily (2nd group), Day 15, before administration (24 hours after previous dose)
  Systolic blood pressure: 185 ± 3 mmHg
5 mg/kg oral once daily (2nd group), Day 22, 4 hours after administration
  Systolic blood pressure: 189 ± 3 mmHg
5 mg/kg oral once daily (2nd group), Day 22, before administration (24 hours after previous dose)
  Systolic blood pressure: 189 ± 3 mmHg
5 mg/kg oral once daily (2nd group), Day 29, 4 hours after administration
  Systolic blood pressure: 190 ± 1 mmHg
5 mg/kg oral once daily (2nd group), Day 29, before administration (24 hours after previous dose)
  Systolic blood pressure: 190 ± 1 mmHg
20 mg/kg oral once daily (3rd group), Day 1, 4 hours after administration
  Systolic blood pressure: 171 ± 3 mmHg
20 mg/kg oral once daily (3rd group), Day 1, before administration (baseline)
  Systolic blood pressure: 172 ± 3 mmHg
20 mg/kg oral once daily (3rd group), Day 8, 4 hours after administration
  Systolic blood pressure: 171 ± 2 mmHg
20 mg/kg oral once daily (3rd group), Day 8, before administration (24 hours after previous dose)
  Systolic blood pressure: 174 ± 2 mmHg
20 mg/kg oral once daily (3rd group), Day 15, 4 hours after administration
  Systolic blood pressure: 180 ± 3 mmHg
20 mg/kg oral once daily (3rd group), Day 15, before administration (24 hours after previous dose)
  Systolic blood pressure: 182 ± 3 mmHg
20 mg/kg oral once daily (3rd group), Day 22, 4 hours after administration
  Systolic blood pressure: 184 ± 3 mmHg
20 mg/kg oral once daily (3rd group), Day 22, before administration (24 hours after previous dose)
  Systolic blood pressure: 184 ± 3 mmHg
20 mg/kg oral once daily (3rd group), Day 29, 4 hours after administration, p < 0.05 relative to the 1st (vehicle) group
  Systolic blood pressure: 184 ± 3 mmHg
20 mg/kg oral once daily (3rd group), Day 29, before administration (24 hours after previous dose)
  Systolic blood pressure: 186 ± 3 mmHg
